Reference: publication PMC11233931, “Remodeling tumor‐associated macrophage for anti‐cancer effects by rational design of irreversible inhibition of mitogen‐activated protein kinase‐activated protein kinase 2” (MedComm, 2024)

What was measured:
Test in all cases: Eurofins kinase selectivity profile against 380 other human recombinant kinases (Table S2)
Format in all cases: biochemical
[1] = biological target: T1, 380 human recombinant protein kinases (Homo sapiens, UniProt Q8WTQ7); settings: GRK7(h), read-out: Inhibition rate
T1 construct: purchased Eurofins (Celle Lévescault)
T1 sequence (Q8WTQ7 1-553): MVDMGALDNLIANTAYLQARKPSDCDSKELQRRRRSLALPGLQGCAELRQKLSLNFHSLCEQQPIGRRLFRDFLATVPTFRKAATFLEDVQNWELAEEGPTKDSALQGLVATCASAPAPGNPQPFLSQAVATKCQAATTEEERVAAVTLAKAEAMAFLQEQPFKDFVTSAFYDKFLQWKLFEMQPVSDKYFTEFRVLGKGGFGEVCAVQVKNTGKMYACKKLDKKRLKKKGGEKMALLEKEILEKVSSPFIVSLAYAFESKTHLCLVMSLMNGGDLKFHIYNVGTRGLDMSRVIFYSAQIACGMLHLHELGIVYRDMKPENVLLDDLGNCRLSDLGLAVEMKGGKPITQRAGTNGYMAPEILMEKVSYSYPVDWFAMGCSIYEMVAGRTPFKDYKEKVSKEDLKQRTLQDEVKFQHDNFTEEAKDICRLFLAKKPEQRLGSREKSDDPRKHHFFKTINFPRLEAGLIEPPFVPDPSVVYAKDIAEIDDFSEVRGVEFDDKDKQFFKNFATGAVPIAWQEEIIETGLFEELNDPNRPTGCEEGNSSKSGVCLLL
Method in brief: (§1)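 Off-target profiling: one compound assayed by a commercial provider over 380 recombinant human protein kinases at various concentrations.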

[2] = biological target: T2, 380 human recombinant protein kinases (Homo sapiens, UniProt Q06187, R28H); settings: BTK(R28H)(h), read-out: Inhibition rate
T2 construct: purchased Eurofins (Celle Lévescault)
T2 sequence (Q06187 whole entry R28H): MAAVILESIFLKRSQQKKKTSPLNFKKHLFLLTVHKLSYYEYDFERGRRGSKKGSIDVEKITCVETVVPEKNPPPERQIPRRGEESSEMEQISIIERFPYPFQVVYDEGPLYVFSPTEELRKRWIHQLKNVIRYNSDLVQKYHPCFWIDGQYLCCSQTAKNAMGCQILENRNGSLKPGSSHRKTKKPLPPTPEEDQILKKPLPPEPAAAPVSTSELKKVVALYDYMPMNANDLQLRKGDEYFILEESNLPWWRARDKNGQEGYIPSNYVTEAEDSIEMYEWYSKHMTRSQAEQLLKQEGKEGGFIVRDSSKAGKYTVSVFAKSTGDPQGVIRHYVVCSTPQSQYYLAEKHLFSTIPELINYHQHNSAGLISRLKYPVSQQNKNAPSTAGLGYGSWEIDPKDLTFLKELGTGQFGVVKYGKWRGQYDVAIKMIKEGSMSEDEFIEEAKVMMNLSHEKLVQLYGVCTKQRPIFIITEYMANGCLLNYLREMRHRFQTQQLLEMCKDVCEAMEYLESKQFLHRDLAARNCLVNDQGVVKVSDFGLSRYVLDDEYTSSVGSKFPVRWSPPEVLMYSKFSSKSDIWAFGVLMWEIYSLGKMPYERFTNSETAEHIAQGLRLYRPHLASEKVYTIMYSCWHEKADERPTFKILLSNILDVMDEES
Method in brief: as §1

[3] = biological target: T3, 380 human recombinant protein kinases (Homo sapiens, UniProt P49760); settings: CLK2(h), read-out: Inhibition rate
T3 construct: purchased Eurofins (Celle Lévescault)
T3 sequence (P49760 whole entry): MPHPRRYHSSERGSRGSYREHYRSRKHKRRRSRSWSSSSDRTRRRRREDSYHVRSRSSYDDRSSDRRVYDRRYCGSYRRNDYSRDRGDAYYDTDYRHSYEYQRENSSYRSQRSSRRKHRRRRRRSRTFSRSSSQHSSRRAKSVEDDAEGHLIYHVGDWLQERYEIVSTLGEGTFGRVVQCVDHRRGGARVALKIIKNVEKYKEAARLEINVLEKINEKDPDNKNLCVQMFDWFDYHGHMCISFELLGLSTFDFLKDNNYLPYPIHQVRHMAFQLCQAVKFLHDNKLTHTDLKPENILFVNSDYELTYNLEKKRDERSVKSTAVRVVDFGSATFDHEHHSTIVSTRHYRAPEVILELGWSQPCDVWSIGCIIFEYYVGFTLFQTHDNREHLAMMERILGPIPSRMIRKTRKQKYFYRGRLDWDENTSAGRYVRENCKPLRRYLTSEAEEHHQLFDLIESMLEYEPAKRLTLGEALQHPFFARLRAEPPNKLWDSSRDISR
Method in brief: as §1

[4] = biological target: T4, 380 human recombinant protein kinases (Homo sapiens, UniProt Q8TDC3); settings: BrSK1(h), read-out: Inhibition rate
T4 construct: purchased Eurofins (Celle Lévescault)
T4 sequence (Q8TDC3 1-778): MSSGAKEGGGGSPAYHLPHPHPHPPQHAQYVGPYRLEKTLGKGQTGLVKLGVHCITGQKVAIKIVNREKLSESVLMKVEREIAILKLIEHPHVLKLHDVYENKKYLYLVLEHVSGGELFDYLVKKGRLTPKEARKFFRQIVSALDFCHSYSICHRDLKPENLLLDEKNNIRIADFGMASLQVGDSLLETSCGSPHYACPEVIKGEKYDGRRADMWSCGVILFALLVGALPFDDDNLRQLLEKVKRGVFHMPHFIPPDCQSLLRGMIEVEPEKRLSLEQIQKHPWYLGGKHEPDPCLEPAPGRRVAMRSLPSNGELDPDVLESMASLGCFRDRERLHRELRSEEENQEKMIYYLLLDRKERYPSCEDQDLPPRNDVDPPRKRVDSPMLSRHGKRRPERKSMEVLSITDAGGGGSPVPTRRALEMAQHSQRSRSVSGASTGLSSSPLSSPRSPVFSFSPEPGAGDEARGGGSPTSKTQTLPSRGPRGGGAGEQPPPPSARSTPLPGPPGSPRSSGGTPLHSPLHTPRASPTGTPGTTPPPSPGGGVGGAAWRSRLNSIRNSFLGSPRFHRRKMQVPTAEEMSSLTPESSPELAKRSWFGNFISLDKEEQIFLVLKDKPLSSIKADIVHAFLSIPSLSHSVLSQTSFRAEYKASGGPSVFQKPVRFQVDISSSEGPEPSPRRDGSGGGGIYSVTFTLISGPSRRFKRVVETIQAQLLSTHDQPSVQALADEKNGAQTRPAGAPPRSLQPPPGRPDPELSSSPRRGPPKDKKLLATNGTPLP
Method in brief: as §1

[5] = biological target: T5, 380 human recombinant protein kinases (Homo sapiens, UniProt Q15418); settings: Rsk1(h), read-out: Inhibition rate
T5 construct: purchased Eurofins (Celle Lévescault)
T5 sequence (Q15418 whole entry): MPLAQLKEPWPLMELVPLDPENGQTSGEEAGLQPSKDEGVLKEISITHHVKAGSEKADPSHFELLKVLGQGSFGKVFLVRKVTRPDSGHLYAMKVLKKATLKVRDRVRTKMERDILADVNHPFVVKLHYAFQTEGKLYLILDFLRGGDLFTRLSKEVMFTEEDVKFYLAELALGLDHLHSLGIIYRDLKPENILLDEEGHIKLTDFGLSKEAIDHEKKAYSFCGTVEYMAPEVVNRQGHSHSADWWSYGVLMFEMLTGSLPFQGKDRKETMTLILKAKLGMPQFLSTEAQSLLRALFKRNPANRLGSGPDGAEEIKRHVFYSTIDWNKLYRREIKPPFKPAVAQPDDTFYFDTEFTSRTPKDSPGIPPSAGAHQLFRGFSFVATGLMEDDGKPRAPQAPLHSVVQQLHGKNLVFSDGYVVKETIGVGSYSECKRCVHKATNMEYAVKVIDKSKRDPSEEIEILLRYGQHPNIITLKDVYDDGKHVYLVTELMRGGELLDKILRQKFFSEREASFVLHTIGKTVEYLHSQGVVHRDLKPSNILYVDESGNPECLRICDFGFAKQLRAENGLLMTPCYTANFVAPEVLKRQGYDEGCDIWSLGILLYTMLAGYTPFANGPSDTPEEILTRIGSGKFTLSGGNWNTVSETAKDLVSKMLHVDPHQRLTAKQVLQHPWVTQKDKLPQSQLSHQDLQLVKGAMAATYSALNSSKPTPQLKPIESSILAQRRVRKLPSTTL
Method in brief: as §1

[6] = biological target: T6, 380 human recombinant protein kinases (Homo sapiens, UniProt Q00532); settings: CDKL1(h), read-out: Inhibition rate
T6 construct: purchased Eurofins (Celle Lévescault)
T6 sequence (Q00532 whole entry): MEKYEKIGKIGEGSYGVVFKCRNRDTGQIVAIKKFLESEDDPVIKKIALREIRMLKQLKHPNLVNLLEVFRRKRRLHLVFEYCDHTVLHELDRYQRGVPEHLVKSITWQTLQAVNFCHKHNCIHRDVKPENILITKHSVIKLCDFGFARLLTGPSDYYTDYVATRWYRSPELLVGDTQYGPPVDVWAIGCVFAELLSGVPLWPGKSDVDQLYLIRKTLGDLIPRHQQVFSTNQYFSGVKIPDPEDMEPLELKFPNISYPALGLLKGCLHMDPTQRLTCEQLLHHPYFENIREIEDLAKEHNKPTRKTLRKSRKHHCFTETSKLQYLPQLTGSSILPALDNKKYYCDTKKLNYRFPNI
Method in brief: as §1

[7] = biological target: T7, 380 human recombinant protein kinases (Homo sapiens, UniProt Q15349); settings: Rsk3(h), read-out: Inhibition rate (%)
T7 construct: purchased Eurofins (Celle Lévescault)
T7 sequence (Q15349 whole entry): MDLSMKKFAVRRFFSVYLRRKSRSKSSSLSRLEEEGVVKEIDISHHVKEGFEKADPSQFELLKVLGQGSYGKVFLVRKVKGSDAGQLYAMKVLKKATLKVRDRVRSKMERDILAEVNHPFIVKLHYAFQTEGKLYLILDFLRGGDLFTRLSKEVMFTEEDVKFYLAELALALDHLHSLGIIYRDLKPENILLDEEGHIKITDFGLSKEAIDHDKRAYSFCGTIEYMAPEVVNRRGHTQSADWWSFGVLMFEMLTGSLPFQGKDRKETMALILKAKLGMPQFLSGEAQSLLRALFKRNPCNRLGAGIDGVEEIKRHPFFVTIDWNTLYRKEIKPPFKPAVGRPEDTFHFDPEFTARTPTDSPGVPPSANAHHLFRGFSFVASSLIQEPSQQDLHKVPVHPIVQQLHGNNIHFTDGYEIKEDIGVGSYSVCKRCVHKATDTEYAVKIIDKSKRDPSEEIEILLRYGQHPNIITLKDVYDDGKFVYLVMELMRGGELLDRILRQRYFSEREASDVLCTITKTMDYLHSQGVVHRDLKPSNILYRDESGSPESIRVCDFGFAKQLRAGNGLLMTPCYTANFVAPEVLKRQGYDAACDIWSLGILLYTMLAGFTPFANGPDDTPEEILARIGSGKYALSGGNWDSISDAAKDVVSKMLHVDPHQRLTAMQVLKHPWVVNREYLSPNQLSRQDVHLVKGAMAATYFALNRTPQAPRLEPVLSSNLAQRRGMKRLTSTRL
Method in brief: as §1

[8] = biological target: T8, 380 human recombinant protein kinases (Homo sapiens, UniProt Q13177); settings: PAK2(h), read-out: Inhibition rate
T8 construct: purchased Eurofins (Celle Lévescault)
T8 sequence (Q13177 whole entry): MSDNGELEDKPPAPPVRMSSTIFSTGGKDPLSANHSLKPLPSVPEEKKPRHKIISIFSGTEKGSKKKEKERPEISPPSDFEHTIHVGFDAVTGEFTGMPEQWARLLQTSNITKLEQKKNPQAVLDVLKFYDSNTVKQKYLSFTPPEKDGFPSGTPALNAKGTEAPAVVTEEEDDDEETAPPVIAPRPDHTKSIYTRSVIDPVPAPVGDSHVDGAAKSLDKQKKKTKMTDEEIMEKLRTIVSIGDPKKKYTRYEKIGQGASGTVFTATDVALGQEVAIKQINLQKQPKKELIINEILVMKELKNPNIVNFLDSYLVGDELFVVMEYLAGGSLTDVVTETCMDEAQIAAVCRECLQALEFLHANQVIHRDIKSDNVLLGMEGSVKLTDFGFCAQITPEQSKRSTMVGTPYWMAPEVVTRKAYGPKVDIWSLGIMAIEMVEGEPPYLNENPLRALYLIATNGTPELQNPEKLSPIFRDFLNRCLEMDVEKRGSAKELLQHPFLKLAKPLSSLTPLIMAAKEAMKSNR
Method in brief: as §1

[9] = biological target: T9, 380 human recombinant protein kinases (Homo sapiens, UniProt P22694); settings: PKAcβ(h), read-out: Inhibition rate
T9 construct: purchased Eurofins (Celle Lévescault)
Method in brief: as §1

[10] = biological target: T10, 380 human recombinant protein kinases (Homo sapiens, UniProt P04626); settings: ErbB2(h), read-out: Inhibition rate
T10 construct: purchased Eurofins (Celle Lévescault)
T10 sequence (P04626 23-1255): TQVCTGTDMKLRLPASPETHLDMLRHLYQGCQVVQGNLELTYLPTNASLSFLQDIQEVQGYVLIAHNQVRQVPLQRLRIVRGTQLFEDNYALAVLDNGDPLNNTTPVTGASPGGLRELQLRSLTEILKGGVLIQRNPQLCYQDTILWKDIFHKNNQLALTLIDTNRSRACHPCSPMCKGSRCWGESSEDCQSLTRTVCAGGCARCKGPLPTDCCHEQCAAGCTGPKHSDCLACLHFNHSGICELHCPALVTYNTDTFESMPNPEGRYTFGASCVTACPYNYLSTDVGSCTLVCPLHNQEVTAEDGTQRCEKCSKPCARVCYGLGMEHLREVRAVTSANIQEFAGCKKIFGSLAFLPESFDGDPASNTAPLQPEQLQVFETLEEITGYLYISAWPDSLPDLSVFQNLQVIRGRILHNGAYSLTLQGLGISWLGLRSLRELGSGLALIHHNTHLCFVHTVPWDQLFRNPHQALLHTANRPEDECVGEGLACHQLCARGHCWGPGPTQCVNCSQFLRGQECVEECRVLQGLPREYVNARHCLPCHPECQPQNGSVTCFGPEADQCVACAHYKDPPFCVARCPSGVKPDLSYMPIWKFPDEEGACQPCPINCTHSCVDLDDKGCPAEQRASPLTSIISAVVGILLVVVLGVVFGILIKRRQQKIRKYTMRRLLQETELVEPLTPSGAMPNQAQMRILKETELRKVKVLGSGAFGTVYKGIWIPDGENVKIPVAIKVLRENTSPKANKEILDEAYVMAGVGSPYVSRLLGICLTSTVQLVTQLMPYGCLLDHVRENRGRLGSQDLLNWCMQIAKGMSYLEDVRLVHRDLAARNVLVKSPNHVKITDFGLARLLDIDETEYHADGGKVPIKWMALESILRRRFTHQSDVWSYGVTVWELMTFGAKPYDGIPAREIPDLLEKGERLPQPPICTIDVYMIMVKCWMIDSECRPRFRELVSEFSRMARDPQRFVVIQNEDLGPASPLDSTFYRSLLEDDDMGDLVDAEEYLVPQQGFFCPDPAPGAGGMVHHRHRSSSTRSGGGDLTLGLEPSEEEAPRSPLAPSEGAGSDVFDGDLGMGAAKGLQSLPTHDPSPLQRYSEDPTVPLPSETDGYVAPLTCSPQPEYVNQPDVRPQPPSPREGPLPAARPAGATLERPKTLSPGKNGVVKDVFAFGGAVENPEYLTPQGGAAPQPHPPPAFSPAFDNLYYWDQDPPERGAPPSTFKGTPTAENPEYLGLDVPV
Method in brief: as §1

C=CC(=O)Nc1cc(-c2cc(-c3cc4c([nH]3)CCNC4=O)ccn2)ccc1OC(F)(F)F [compound 11]
inhibition at 0.01 µM ([1]; 10 nM): -4% | inhibition at 0.1 µM ([1]; 100 nM): -6% | inhibition at 1 µM ([1]; 1000 nM): 2% | inhibition at 0.01 µM ([2]; 10 nM): -27% | inhibition at 0.1 µM ([2]; 100 nM): 6% | inhibition at 1 µM ([2]; 1000 nM): 1% | inhibition at 0.01 µM ([3]; 10 nM): 1% | inhibition at 0.1 µM ([3]; 100 nM): 10% | inhibition at 1 µM ([3]; 1000 nM): 42% | inhibition at 0.01 µM ([4]; 10 nM): -7% | inhibition at 0.1 µM ([4]; 100 nM): -3% | inhibition at 1 µM ([4]; 1000 nM): 17% | inhibition at 0.01 µM ([5]; 10 nM): -2% | inhibition at 0.1 µM ([5]; 100 nM): -3% | inhibition at 1 µM ([5]; 1000 nM): -7% | inhibition at 0.01 µM ([6]; 10 nM): 26% | inhibition at 0.1 µM ([6]; 100 nM): 47% | inhibition at 1 µM ([6]; 1000 nM): 49% | inhibition at 0.01 µM ([7]; 10 nM): -9% | inhibition at 0.1 µM ([7]; 100 nM): 14% | inhibition at 1 µM ([7]; 1000 nM): 16% | inhibition at 0.01 µM ([8]; 10 nM): -3% | inhibition at 0.1 µM ([8]; 100 nM): -5% | inhibition at 1 µM ([8]; 1000 nM): -3% | inhibition at 0.01 µM ([9]; 10 nM): -11% | inhibition at 0.1 µM ([9]; 100 nM): -4% | inhibition at 1 µM ([9]; 1000 nM): 5% | inhibition at 0.01 µM ([10]; 10 nM): 10% | inhibition at 0.1 µM ([10]; 100 nM): 5% | inhibition at 1 µM ([10]; 1000 nM): 1%
